Data on 1 compound can be found in patent publication US10857136B2, “Compounds for use in the prevention and/or treatment of non-alcoholic fat liver disease and non-alcoholic steatohepatitis” (SJT MOLECULAR RESEARCH, SL, priority 2017, dated 2020).

The test system of assay [1] is DIO-NASH mice (C57Bl/6J male mice). Briefly: Liver fibrosis: collagen type I (col1a1) IHC staining in DIO-NASH mice. The settings on record: 50 mg/kg, p.o., b.i.d., 8 weeks. The format is in vivo. The procedure:
To assess the effect of the compounds of the invention in fibrosis of liver in the treatment of non-alcoholic fat liver disease, the collagen type I (a fibrosis marker) in liver was measured after the 8 weeks of the study where DIO-NASH mice (C57Bl/6J male mice) were treated with a hydrochloride salt of compound 4a during 8 weeks (50 mg/kg, p.o., b.i.d.), versus a pathological control of DIO-NASH mice and a non-pathological control LEAN-CHOW mice, both treated with the vehicle (0.9% NaCl).
Type I collagen content was measured by IHC staining: Type I collagen (Southern Biotech, Cat. 1310-01) IHC was performed using standard procedures. Briefly, after antigen retrieval and blocking of endogenous peroxidase activity, liver slides were incubated with primary antibody. The primary antibody was detected using biotinylated secondary antibody and amplified using a vectastain-TSA-vectastain method a polymeric HRP-linker antibody conjugate. Next, the primary antibody was visualized with DAB as chromogen. Finally, sections were counterstained in hematoxylin and cover-slipped.

Assay [2] shares this test system. Briefly: Liver toxicity: plasma ALT and AST, 8 weeks assay in DIO-NASH mice. As to conditions: 50 mg/kg, p.o., b.i.d., end of treatment, vs DIO-NASH vehicle. The format is in vivo. The procedure: The assay was carried out to evaluate the effect of the compounds of the invention on liver toxicity for animals with non-alcoholic fat liver disease (DIO-NASH mice). For this assay, the effect of compound 4a in plasma Alanine Aminotransferase (ALT) and in plasma Aspartate Aminotransferase (AST) was evaluated. DIO-NASH mice (C57Bl/6J male mice) were treated with a hydrochloride salt of compound 4a during 8 weeks (50 mg/kg, p.o., b.i.d.), versus a pathological control of DIO-NASH mice and a non-pathological control LEAN-CHOW mice, both treated with the vehicle (0.9% NaCl). The animals were kept under the same conditions were used as in example 2.2. The DIO-NASH mice group were put on high fat diet (40% AMLN diet, D09100301 Research Diets, USA) and a control group (LEAN-CHOW) was put on a regular chow diet (Altromin 1324, Brogaarden, Denmark) for 35 weeks prior to the study.
To evaluate Alanine transaminase (ALT) and Aspartate transaminase (AST), blood samples were collected in heparinized tubes and plasma was separated and stored at −80° C. until analysis. ALT and AST were measured using commercial kits (Roche Diagnostics, Germany) on the Cobas™ C-501 autoanalyzer according to the manufacturer's instructions.

On to `COc1ccc(-c2nc(C(=O)NCCN)cc3c2[nH]c2ccccc23)cc1` [Compound 4a, N(-ethylamine)-1-benzosubstituted-β-carboline-3-carboxamide], for which, in assay [1] (end of study), the “anti-type I collagen (col1a1) staining, representative images of liver samples” value was “visible change in this fibrosis marker”. For the same compound, the “total content of liver collagen type 1 (col1a1) determined by morphometry” value in assay [1] (vs DIO-NASH vehicle) is on record as “reduced total liver col1a1”. In assay [2], the “plasma ALT” value is on record as “reduced the plasma ALT levels” and the “plasma AST” value is “reduced the plasma AST levels”.
